Results taken from patent US20060135491A1, “Vitamin D3 analog useful for the treatment of osteoporosis” (priority 2004, published 2006).

What was measured:
HL-60 cells = assay: Cell differentiation, NBT reduction assay; type: cell-based; conditions: in comparison with 1α,25(OH)2D3 as control (100% activity); 4 days
Method: The vitamin D analog of the present invention was evaluated for its effect on cell differentiation. Falcon tissue chambers were seeded with 4×10^4 cells/cm of HL-60 cells using RPMI 1640 medium supplemented with […] FCS and gentamycin (50 μg/mL),in a final cell volume of 5 mL. The cultures were maintained at 37° C. in an atmosphere of humidified air containing 5% CO2. After 24 hours incubation, the control 1αa,25(OH)2D3 and the compound to be tested were each dissolved in ethanol and added to the cell culture with the final concentration being less than 0.2%. After 4 days, the dishes were shaken to lose adherent cells. The cells were then washed twice in RPMI medium, counted, and then assayed for differentiation markers (NBT reduction assay). Superoxide production was measured as NBT reducing activity as described by Ostrem et al. in Proc. Natl. Acad. Sci. USA, (1987) 84: 2610-2614. HL-60 cells at 1×10^6/mL were mixed with an equal volume of freshly prepared solution of phorbol 12-myristate 13-acetate (200 ng/mL) and NBT (2 μg/mL) and incubated for 30 minutes at 37° C. The percentage of cells containing black formazan deposits was determined using a hemacytometer. […]

NMRI mice = assay: In vivo determination of calcium levels; conditions: for Body Weight / Femur Ca / Serum Ca: 7 consecutive days
Method: Eight week old, male NMRI mice were obtained from the Animal Center of Leuven (Belgium) and fed a vitamin D-replete diet (0.2% calcium, 1% phosphate, 2000 U vitamin D/kg; Hope Farms, Woerden, The Netherlands). […] The control group was injected with vehicle (arachis oil). […] The following parameters were evaluated: serum calcium and femur calcium. Serum calcium was measured by a microcolorimetric assay (Sigma, St. Louis, Mo.). Femurs were removed and femur calcium content was measured in HCl-dissolved bone ash (obtained by heating for 24 hours in an oven at 100° C.), using the same technique as for serum calcium.

[1] = biological target: T1, Human Vitamin D Binding Protein (hDBP) (Homo sapiens, UniProt P02774); assay: Affinity for human vitamin D binding protein, displacement of [3H]1α,25(OH)2D3; conditions: relative affinity at 50% displacement of [3H]1α,25(OH)2D3; 1α,25(OH)2D3 assigned 100%; hDBP 0.18 μM, 3 hours at 4° C.
T1 sequence (P02774 17-474): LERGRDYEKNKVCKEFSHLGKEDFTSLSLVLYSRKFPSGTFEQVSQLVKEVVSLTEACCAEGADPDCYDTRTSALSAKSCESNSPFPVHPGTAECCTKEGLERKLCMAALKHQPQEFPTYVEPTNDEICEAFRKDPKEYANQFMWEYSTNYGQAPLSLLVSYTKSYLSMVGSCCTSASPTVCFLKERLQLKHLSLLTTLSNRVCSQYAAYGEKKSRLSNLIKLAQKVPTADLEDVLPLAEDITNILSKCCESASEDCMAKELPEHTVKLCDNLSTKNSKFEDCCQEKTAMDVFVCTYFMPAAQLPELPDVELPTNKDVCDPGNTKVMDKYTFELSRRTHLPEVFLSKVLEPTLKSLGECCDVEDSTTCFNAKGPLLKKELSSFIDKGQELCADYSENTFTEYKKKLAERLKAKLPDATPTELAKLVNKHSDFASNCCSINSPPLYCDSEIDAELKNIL
Method: The solution was incubated for 3 hours at 4° C. Final phase separation was obtained by adding 0.5 mL of cold dextran-coated charcoal.

[2] = system: ovariectomized Sprague-Daley rats; assay: Three-month treatment efficacy in ovariectomized rats; type: in vivo; conditions: oral
Method: Efficacy was tested in 6 month old Sprague-Daley rats which were sham-operated or ovariectomized (OVX). Ovariectomized animals were sacrificed after two months as a pre-treatment control group, with remaining animals being treated for three months with vehicle or with (1R,3R)-5-{(E)-(2R,5R)-2-[2-(4-hydroxy-4-methylpentyl)-spiro[4.5]dec-7-ylidene]-ethylidene}-cyclohexane-1,3-diol (at dosages of 0.3, 1,3 or 10 μg/kg/day respectively) by oral administration. At the end of treatment, blood was obtained by cardiac puncture for evaluation of serum calcium levels. Hypercalcemia was identified as a mean value 10% greater than the OVX-vehicle group. Bone efficacy was measured using micro-CT (Scanco μCT 40) evaluation of the vertebral cancellous bone volume compared to either the final OVX-group and/or the pre-treatment OVX group.

Vitamin D receptor (VDR) = biological target: T2, Vitamin D receptor (VDR) (Sus scrofa, UniProt A3RGC1); conditions: relative affinity at 50% displacement of [3H]1α,25(OH)2D3; 1α,25(OH)2D3 assigned 100%; porcine intestinal mucosa supernatant, 4° C., 20 hours
T2 sequence (A3RGC1 1-427): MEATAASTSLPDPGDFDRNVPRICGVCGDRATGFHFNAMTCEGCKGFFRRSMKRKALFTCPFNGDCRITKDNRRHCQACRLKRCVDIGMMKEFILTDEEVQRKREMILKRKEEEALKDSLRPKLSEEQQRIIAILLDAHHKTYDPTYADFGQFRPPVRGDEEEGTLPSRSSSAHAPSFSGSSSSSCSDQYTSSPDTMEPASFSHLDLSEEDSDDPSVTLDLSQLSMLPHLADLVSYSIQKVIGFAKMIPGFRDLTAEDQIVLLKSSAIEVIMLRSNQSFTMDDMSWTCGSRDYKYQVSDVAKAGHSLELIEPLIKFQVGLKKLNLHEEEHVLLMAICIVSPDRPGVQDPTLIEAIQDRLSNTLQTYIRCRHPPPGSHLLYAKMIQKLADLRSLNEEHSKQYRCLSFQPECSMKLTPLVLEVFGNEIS

MCF-7 cells = assay: Cell proliferation, [3H]thymidine incorporation; type: cell-based; conditions: in comparison with 1α,25(OH)2D3 as control (100% activity); 72 hours incubation
Method: The compound of the present invention was evaluated for its effect on cell proliferation. […] The cultures were maintained at 37° C. in an atmosphere of humidified air containing 5% CO2. The MCF-7 cells were seeded at approximately 5×10^3 cells/well in the DMEM modified medium in a 96-well microtiter plate. […] Finally, 1 μCi of [^3H]thymidine was added to each well and the cells were harvested after a further 4 hour incubation period. The cells were harvested with a Packard Harvester and the cell count measured by a Packard Topcount System.

% hDBP binding [1] [%]	hypercalcemia (mean serum calcium 10% greater than OVX-vehicle group) ([2]; three months, at doses that increased vertebral bone volume)	% VDR binding (Vitamin D receptor (VDR)) [%]	Structure (SMILES)	HL-60 cell differentiation, percentage activity (at 50% of the dose response) (HL-60 cells) [%]	Body Weight (NMRI mice; 0.1 μg/kg/day i.p.) [g]	Femur Ca (NMRI mice; 0.1 μg/kg/day i.p.) [mg]	Serum Ca (NMRI mice; 0.1 μg/kg/day i.p.) [mg/dL]	Body Weight (NMRI mice; 0.2 μg/kg/day i.p.) [g]	Femur Ca (NMRI mice; 0.2 μg/kg/day i.p.) [mg]	Serum Ca (NMRI mice; 0.2 μg/kg/day i.p.) [mg/dL]	Body Weight (NMRI mice; 0.4 μg/kg/day i.p.) [g]	Femur Ca (NMRI mice; 0.4 μg/kg/day i.p.) [mg]	Serum Ca (NMRI mice; 0.4 μg/kg/day i.p.) [mg/dL]	estimated serum calcium level as compared with 1α,25(OH)2D3 (NMRI mice; 1α,25(OH)2D3 assigned a value of 100%, i.p., 7 days) [%]	vertebral cancellous bone volume (micro-CT) ([2]; OVX rats, three months, 0.3, 1,3 or 10 μg/kg/day, vs pre-treatment and final OVX groups)	Femur Ca (NMRI mice; 5 μg/kg/day i.p.) [mg]	Femur Ca (NMRI mice; 10 μg/kg/day i.p.) [mg]	MCF-7 cell proliferation, percentage activity (at 50% of the dose response) (MCF-7 cells) [%]
			C=C1/C(=C\C=C2/CCC[C@]3(C)[C@@H]([C@H](C)CCCC(C)(C)O)CC[C@@H]23)C[C@@H](O)C[C@@H]1O [1α,25(OH)2D3, 1α,25-dihydroxyvitamin D3]	100	30.5	10.9	13.3	27.8	10.3	14.1	23.2	8.9	18.2	100				
3	did not induce hypercalcemia	10	CC(C)(O)CCC[C@@H]1CC[C@]2(CCC/C(=C\C=C3C[C@@H](O)C[C@H](O)C3)C2)C1 [(1R,3R)-5-{(E)-(2R, 5R)-2-[2-(4-hydroxy-4-methylpentyl)-spiro[4.5]dec-7-ylidene]-ethylidene}-cyclohexane-1,3-diol]	200								10.1			significantly increase vertebral bone volume above pre-treatment and final OVX groups	11.3	12.3	450
